Data set [1] deals with T1, GCGR (Homo sapiens, UniProt P47871).
T1 construct: expressed in transfected cells
Nature of the data set: CRE-driven luciferase reporter assay, HEK293 cells overexpressing GCGR. It is filed as cell-based. The procedure: (§1) The surviving cells (referred to as CRE-HEK293) were expanded and then transfected with a G418 selective mammalian expression plasmid encoding human GCGR or GLP-1R, followed by geneticin selection (Life technologies, Carlsbad, Calif.). Single-colony stable cell lines expressing both CRE-luciferase and GCGR/GLP-1R were then established for in vitro activity assays.
(§2) HEK293-GCGR-CRE and HEK293-GLP-1R-CRE cells were seeded in a white 384-well plate at a density of 5,000 cells per well and cultured for 24 hours in DMEM with 10% FBS at 37° C. with 5% CO2. Cells were treated with different peptides in a dose dependent manner. After 24 hours, 10 μL of Bright-Glo reagent (Promega, Madison, Wis.) was added to each well and luminescence was determined using an Envision multilabel plate reader (PerkinElmer, Waltham, Mass.). The EC50 of each peptide was calculated using GraphPad Prism 6 software (GraphPad, San Diego, Calif.).

Data set [2] concerns the target T2, GLP-1R (Homo sapiens, UniProt P43220).
T2 construct: expressed in transfected cells
Description: CRE-driven luciferase reporter assay, HEK293 cells overexpressing GLP-1R. The class given is cell-based. The protocol:
as §1, §2

A short description of data set [3]: In vivo pharmacokinetic studies in mice; plasma peptide measured by GLP-1R reporter assay. The conditions noted are these: mouse, 0.3 mg/kg. A general note: A reporter such as luciferase makes a cellular process visible.
Description: All animal care and experimental procedures were approved by the Institutional Animal Care and Use Committee (IACUC) of California Institute for Biomedical Research and strictly followed the NIH guidelines for humane treatment of animals. Female CD-1 mice obtained from Charles River Limited were used after overnight food deprivation for in vivo PK studies. Peptides were dissolved in pH adjusted phosphate buffered saline (PBS, pH=7.4). 100 μL of each peptide (0.3 mg/kg) was administered to each mouse by either i.v. or s.c routes. Food was provided to mice immediately after bleeding at 30 minutes. […] The resulting supernatant plasma was then stored at −80° C. for peptide concentration determination. Peptide concentration in the plasma was determined by in vitro GLP1R activation reporter assay.
HEK 293 cells overexpressing GLP1R and CRE-Luc reporter were treated with plasma samples at different time points (5 point dose response, starting from 1:20 dilution of each plasma sample), incubated for 16 hours in DMEM with 10% FBS at 37° C. with 5% CO2, and the firefly luciferase activity was measured. At the same time, injected peptides were used to obtain standard curves and parameters for Bottom, Top, EC50, Hill Slope. Random luciferase unit (RLU) for each plasma sample was used to calculate the peptide concentrations in plasma (nmol/L), using parameters derived from the standard curve (RLU=Bottom+(Top−Bottom)/(1+10^((Log EC50−Conc.)*Hill Slope)). Peptide concentrations in plasma were obtained and plotted against time points to obtain in vivo half-life of each peptide, using WinNonLin Phoenix software (Pharsight Corp, St. Louis, Mo.).
A short description of data set [4]: Far-UV circular dichroism measurement. It is filed as physicochemical. The conditions noted are these: measure of relative amounts of 310- and α-helix.
Description: The sensitivity and scan rate of the spectrophotometer were set to 100 mdeg and 50 nm/min, respectively. All peptides were dissolved in 0.1×PBS to reach final concentrations of 0.2 mg/mL.
The subject of data set [5] is CD1 mice. Description: Oral glucose tolerance test (OGTT). The class given is in vivo. Particulars: 10 μg/mice s.c. 4 hours before oral glucose challenge.
Description: CD1 mice were fasted overnight and then administered with certain amount of peptides through s.c. injection (10 μg/mice).
Data set [6] in a line: In vitro half-life after incubation with freshly isolated mouse serum (GLP-1R activation assay). It is filed as in vitro ADME. The conditions noted are these: read-out: t1/2 in vitro (converted).
Where [7] appears, read: compared to its linear counterpart.
Setting [8] is: iv, intravenously injected, read-out: elimination half-life (converted).
The mark [9] stands for this setting: sc, administered subcutaneously, read-out: half-life (converted).

Starred links: 1 amine or outer side, 2 acyl side, 3 side chain; linkers in the order of their positions; H or OH if unused. Positions of bridges follow the written chain, without caps; N, C: chain ends. Non-standard residues stand in square brackets, D forms with d. Residues, ends and D or L forms follow the SMILES beside them. CH2(3,3'-bipyridine-6,6')CH2 = c1cc(C[*:1])ncc1-c1ccc(C[*:2])nc1; Biphenyl(4,4'-CH2)2 = c1cc(-c2ccc(C[*:2])cc2)ccc1C[*:1]

T2 sequence (P43220 24-463): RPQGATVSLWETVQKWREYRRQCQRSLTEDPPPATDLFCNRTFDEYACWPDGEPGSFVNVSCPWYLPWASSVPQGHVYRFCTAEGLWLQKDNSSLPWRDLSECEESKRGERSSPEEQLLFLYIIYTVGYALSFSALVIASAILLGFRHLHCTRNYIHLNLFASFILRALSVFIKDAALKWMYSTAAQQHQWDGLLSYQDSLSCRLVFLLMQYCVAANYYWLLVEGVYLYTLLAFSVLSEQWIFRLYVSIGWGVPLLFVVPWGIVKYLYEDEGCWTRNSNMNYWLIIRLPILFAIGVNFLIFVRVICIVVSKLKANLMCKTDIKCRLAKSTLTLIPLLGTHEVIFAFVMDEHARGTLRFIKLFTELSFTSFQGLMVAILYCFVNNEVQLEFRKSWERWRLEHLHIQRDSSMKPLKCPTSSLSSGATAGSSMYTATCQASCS
T1 sequence (P47871 26-477): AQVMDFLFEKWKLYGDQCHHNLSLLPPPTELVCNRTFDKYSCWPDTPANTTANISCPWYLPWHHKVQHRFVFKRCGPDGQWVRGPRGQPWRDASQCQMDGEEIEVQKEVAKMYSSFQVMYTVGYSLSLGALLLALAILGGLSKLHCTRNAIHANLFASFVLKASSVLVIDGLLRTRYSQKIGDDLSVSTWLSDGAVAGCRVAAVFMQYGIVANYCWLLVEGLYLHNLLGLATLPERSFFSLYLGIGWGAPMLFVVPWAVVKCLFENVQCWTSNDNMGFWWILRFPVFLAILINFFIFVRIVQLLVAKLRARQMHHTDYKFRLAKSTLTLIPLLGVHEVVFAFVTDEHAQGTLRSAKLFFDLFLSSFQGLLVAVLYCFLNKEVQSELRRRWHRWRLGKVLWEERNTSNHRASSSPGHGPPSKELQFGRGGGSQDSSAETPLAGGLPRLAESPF

On to `CC[C@H](C)[C@H](NC(=O)[C@H](CC(N)=O)NC(=O)[C@H](CC(N)=O)NC(=O)[C@H](CCCNC(=N)N)NC(=O)[C@H](CC(N)=O)NC(=O)[C@H](CCCNC(=N)N)NC(=O)[C@H](CCCCN)NC(=O)[C@@H](NC(=O)[C@H](CC(N)=O)NC(=O)[C@H](CCSC)NC(=O)[C@H](CC(C)C)NC(=O)[C@H](Cc1c[nH]c2ccccc12)NC(=O)[C@H](CS)NC(=O)[C@@H](NC(=O)[C@H](Cc1ccccc1)NC(=O)[C@H](CC(=O)O)NC(=O)[C@H](CCC(N)=O)NC(=O)[C@H](C)NC(=O)[C@H](CCCNC(=N)N)NC(=O)[C@H](CS)NC(=O)[C@H](CCC(=O)O)NC(=O)[C@H](CC(=O)O)NC(=O)[C@H](CC(C)C)NC(=O)[C@H](Cc1ccc(O)cc1)NC(=O)[C@H](CCCCN)NC(=O)[C@H](CO)NC(=O)[C@H](Cc1ccc(O)cc1)NC(=O)[C@H](CC(=O)O)NC(=O)[C@H](CO)NC(=O)[C@@H](NC(=O)[C@H](Cc1ccccc1)NC(=O)[C@@H](NC(=O)CNC(=O)[C@H](CCC(N)=O)NC(=O)[C@@H](CO)NC(=O)[C@@H](N)Cc1c[nH]cn1)[C@@H](C)O)[C@@H](C)O)C(C)C)[C@@H](C)O)C(=O)N[C@@H](C)C(N)=O` [peptide 5] (H-H[dS]QGTFTSDYSKYLDECRAQDFVCWLMNTKRNRNNIA-NH2), for which, in data set [1] (comparison), the “GCGR activation, result in words” value is on record as “modest enhancement”. Besides, the “GLP-1R activation, result in words” value in data set [2] (comparison) is recorded as “modest enhancement”.

Turning to `CC[C@H](C)[C@H](NC(=O)[C@H](CC(N)=O)NC(=O)[C@H](CC(N)=O)NC(=O)[C@H](CCCNC(=N)N)NC(=O)[C@H](CC(N)=O)NC(=O)[C@H](CCCNC(=N)N)NC(=O)[C@H](CCCCN)NC(=O)[C@@H](NC(=O)[C@H](CC(N)=O)NC(=O)[C@H](CCSC)NC(=O)[C@H](CC(C)C)NC(=O)[C@H](Cc1c[nH]c2ccccc12)NC(=O)[C@@H]1CSCc2ccc(cc2)-c2ccc(cc2)CSC[C@H](NC(=O)[C@H](CCC(=O)O)NC(=O)[C@H](CC(=O)O)NC(=O)[C@H](CC(C)C)NC(=O)[C@H](Cc2ccc(O)cc2)NC(=O)[C@H](CCCCN)NC(=O)[C@H](CO)NC(=O)[C@H](Cc2ccc(O)cc2)NC(=O)[C@H](CC(=O)O)NC(=O)[C@H](CO)NC(=O)[C@@H](NC(=O)[C@H](Cc2ccccc2)NC(=O)[C@@H](NC(=O)CNC(=O)[C@H](CCC(N)=O)NC(=O)[C@@H](CO)NC(=O)[C@@H](N)Cc2c[nH]cn2)[C@@H](C)O)[C@@H](C)O)C(=O)N[C@@H](C)C(=O)N[C@@H](C)C(=O)N[C@@H](CCCCN)C(=O)N[C@@H](CCC(=O)O)C(=O)N[C@@H](Cc2ccccc2)C(=O)N[C@@H]([C@@H](C)CC)C(=O)N1)[C@@H](C)O)C(=O)N[C@@H](C)C(N)=O` [peptide 9] (H-H[dS]QGTFTSDYSKYLDECAAKEFICWLMNTKRNRNNIA-NH2; linker 17-24 via Biphenyl(4,4'-CH2)2), the “increase in activity toward GCGR on crosslinking” value in data set [1] (setting [7]) is given as 40 fold. The half-life in data set [3] (setting [8]) is 1.2 h; in data set [3] (setting [9]) it was 1.9 h; in data set [6], 13 h. The “ratio of [θ]222/[θ]208” value in data set [4] was approximately 1.0. In addition, the “increase in activity toward GLP-1R on crosslinking” value in data set [2] (setting [7]) is recorded as 80 fold. Besides, the “blood glucose levels decreased to” value in data set [5] is listed as 40%.

On to `CC[C@H](C)[C@H](NC(=O)[C@H](CC(N)=O)NC(=O)[C@H](CC(N)=O)NC(=O)[C@H](CCCNC(=N)N)NC(=O)[C@H](CC(N)=O)NC(=O)[C@H](CCCNC(=N)N)NC(=O)[C@H](CCCCN)NC(=O)[C@@H](NC(=O)[C@H](CC(N)=O)NC(=O)[C@H](CCSC)NC(=O)[C@H](CC(C)C)NC(=O)[C@H](Cc1c[nH]c2ccccc12)NC(=O)[C@@H]1CSCc2ccc(cn2)-c2ccc(nc2)CSC[C@H](NC(=O)[C@H](CCC(=O)O)NC(=O)[C@H](CC(=O)O)NC(=O)[C@H](CC(C)C)NC(=O)[C@H](Cc2ccc(O)cc2)NC(=O)[C@H](CCCCN)NC(=O)[C@H](CO)NC(=O)[C@H](Cc2ccc(O)cc2)NC(=O)[C@H](CC(=O)O)NC(=O)[C@H](CO)NC(=O)[C@@H](NC(=O)[C@H](Cc2ccccc2)NC(=O)[C@@H](NC(=O)CNC(=O)[C@H](CCC(N)=O)NC(=O)[C@@H](CO)NC(=O)[C@@H](N)Cc2c[nH]cn2)[C@@H](C)O)[C@@H](C)O)C(=O)N[C@@H](C)C(=O)N[C@@H](C)C(=O)N[C@@H](CCCCN)C(=O)N[C@@H](CCC(=O)O)C(=O)N[C@@H](Cc2ccccc2)C(=O)N[C@@H]([C@@H](C)CC)C(=O)N1)[C@@H](C)O)C(=O)N[C@@H](C)C(N)=O` [peptide 11] (H-H[dS]QGTFTSDYSKYLDECAAKEFICWLMNTKRNRNNIA-NH2; linker 17-24 via CH2(3,3'-bipyridine-6,6')CH2), for which the half-life in data set [3] (setting [8]) was 1.4 h; in data set [3] (setting [9]), 1.9 h; in data set [6], 13 h. The “ratio of [θ]222/[θ]208” value in data set [4] is reported as approximately 1.0. In data set [2] (compared to peptide 9, GLP-1R and GCGR), the “greater efficacy in receptor activation” value was 3-4 fold. Moreover, in data set [5], the “blood glucose levels decreased to” value worked out at 45%.

With exendin-4 [Ex-4, reference compound], the “decrease of the area under curve (AUC) of blood glucose” value in data set [5] is 30%.
